Laboratory results as given in the NIST ThermoML archive (doi:10.1021/acs.jced.8b00213).

How the values were obtained:
[1] = xn = mol fraction of the nth substance listed; details: 100 kPa, Liquid, x1 = 0.25; for electrical conductivity: Alternating current cell with electrodes; for speed of sound: Single path-length method; for mass density: Vibrating tube method; for viscosity: Falling or rolling sphere viscometry
[2] = refractive index (Na D-line) (dimensionless); xn = mol fraction of the nth substance listed; details: 100 kPa, Liquid, Standard Abbe refractometry, x1 = 0.25

CCCC[N+](CCCC)(CCCC)Cc1ccccc1.[Cl-] [benzyltributylammonium chloride] + OCC(O)CO
Details | electrical conductivity, [1] [S/m] | mass density, [1] [kg/m3] | refractive index, [2] | speed of sound, [1] [m/s] | viscosity, [1] [mPa·s]
283.15 K | 0.003 | 1112.02 | 1.5095 | 1908 | –
288.15 K | 0.005 | 1108.9 | 1.5079 | 1866.4 | –
293.15 K | 0.007 | 1105.78 | 1.5065 | 1833 | –
298.15 K | 0.009 | 1102.66 | 1.5051 | 1805.3 | 2328.1
303.15 K | 0.013 | 1099.54 | 1.5036 | 1782 | 1709.2
308.15 K | 0.019 | 1096.41 | 1.5021 | 1761.7 | 1112.1
313.15 K | 0.025 | 1093.28 | 1.5006 | 1743.5 | 740.9
318.15 K | 0.038 | 1090.07 | 1.4992 | 1726.8 | 497.7
323.15 K | 0.047 | 1086.95 | 1.4977 | 1711.2 | 346.1
328.15 K | 0.065 | 1083.85 | 1.4962 | 1696 | 254.6
333.15 K | 0.086 | 1080.72 | 1.4948 | 1681.5 | 185.3
338.15 K | 0.109 | 1077.58 | 1.4933 | 1667.3 | 138.1
343.15 K | 0.138 | 1074.43 | 1.4917 | 1653.9 | 105

CCCC[N+](CCCC)(CCCC)Cc1ccccc1.[Cl-] [benzyltributylammonium chloride] + OCCO
Details | electrical conductivity, [1] [S/m] | mass density, [1] [kg/m3] | refractive index, [2] | speed of sound, [1] [m/s] | viscosity, [1] [mPa·s]
283.15 K | 0.03 | 1045.37 | 1.4993 | 1734.9 | 901.4
288.15 K | 0.039 | 1042.15 | 1.4979 | 1716.3 | 598.4
293.15 K | 0.048 | 1039 | 1.4963 | 1698.9 | 415.2
298.15 K | 0.064 | 1035.88 | 1.4947 | 1682.2 | 286
303.15 K | 0.081 | 1032.74 | 1.4932 | 1666.2 | 211
308.15 K | 0.099 | 1029.6 | 1.4917 | 1650.5 | 155.5
313.15 K | 0.122 | 1026.44 | 1.4901 | 1635.2 | 117.1
318.15 K | 0.148 | 1023.29 | 1.4886 | 1620.1 | 89.9
323.15 K | 0.181 | 1020.13 | 1.4871 | 1605.2 | 70.7
328.15 K | 0.219 | 1016.97 | 1.4855 | 1590.5 | 55.8
333.15 K | 0.262 | 1013.82 | 1.484 | 1576 | 43.6
338.15 K | 0.315 | 1010.67 | 1.4825 | 1561.7 | 34.9
343.15 K | 0.365 | 1007.53 | 1.4809 | 1547.9 | 28.1

CCCC[N+](CCCC)(CCCC)Cc1ccccc1.[Cl-] [benzyltributylammonium chloride] + OCCOCCO
Details | electrical conductivity, [1] [S/m] | mass density, [1] [kg/m3] | refractive index, [2] | speed of sound, [1] [m/s] | viscosity, [1] [mPa·s]
283.15 K | 0.019 | 1063.94 | 1.4957 | 1706.8 | 961.86
288.15 K | 0.025 | 1060.76 | 1.4945 | 1689.5 | 644.25
293.15 K | 0.032 | 1057.65 | 1.4929 | 1673.2 | 433.54
298.15 K | 0.04 | 1054.57 | 1.4909 | 1658.1 | 310.37
303.15 K | 0.052 | 1051.5 | 1.4893 | 1643.5 | 224.9
308.15 K | 0.066 | 1048.41 | 1.4878 | 1629.5 | 168.37
313.15 K | 0.081 | 1045.31 | 1.486 | 1615.6 | 125.21
318.15 K | 0.099 | 1042.22 | 1.4849 | 1602 | 96.78
323.15 K | 0.115 | 1039.12 | 1.4836 | 1588.6 | 76.23
328.15 K | 0.13 | 1036.03 | 1.4815 | 1575.3 | 62.63
333.15 K | 0.154 | 1032.94 | 1.4804 | 1562.1 | 50.43
338.15 K | 0.178 | 1029.85 | 1.4786 | 1549.2 | 40.68
343.15 K | 0.207 | 1026.78 | 1.4776 | 1536.7 | 32.76

CCCC[N+](CCCC)(CCCC)Cc1ccccc1.[Cl-] [benzyltributylammonium chloride] + OCCOCCOCCO
Details | electrical conductivity, [1] [S/m] | mass density, [1] [kg/m3] | refractive index, [2] | speed of sound, [1] [m/s] | viscosity, [1] [mPa·s]
283.15 K | 0.013 | 1077.97 | 1.4936 | 1710.1 | 738.7
288.15 K | 0.017 | 1074.64 | 1.4921 | 1692.4 | 506
293.15 K | 0.021 | 1071.36 | 1.4906 | 1675.8 | 356.9
298.15 K | 0.027 | 1068.09 | 1.4889 | 1659.8 | 256.5
303.15 K | 0.035 | 1064.81 | 1.4874 | 1644.2 | 188.5
308.15 K | 0.043 | 1061.53 | 1.4857 | 1629.2 | 142.4
313.15 K | 0.054 | 1058.25 | 1.4842 | 1614.3 | 109.1
318.15 K | 0.067 | 1054.97 | 1.4827 | 1599.8 | 85.2
323.15 K | 0.082 | 1051.7 | 1.4811 | 1585.4 | 67.7
328.15 K | 0.098 | 1048.43 | 1.4795 | 1571.2 | 54.4
333.15 K | 0.114 | 1045.18 | 1.4779 | 1557.1 | 43.3
338.15 K | 0.145 | 1041.92 | 1.4764 | 1543.3 | 34.9
343.15 K | 0.174 | 1038.69 | 1.4748 | 1530 | 28.3

C[N+](C)(C)Cc1ccccc1.[Cl-] [trimethylbenzylammonium chloride] + OCC(O)CO
Details | electrical conductivity, [1] [S/m] | mass density, [1] [kg/m3] | refractive index, [2] | speed of sound, [1] [m/s] | viscosity, [1] [mPa·s]
283.15 K | 0.012 | 1190.87 | 1.5126 | 1992.6 | –
288.15 K | 0.019 | 1187.92 | 1.5114 | 1970.8 | 1874.9
293.15 K | 0.027 | 1184.97 | 1.5102 | 1953 | 1170.9
298.15 K | 0.039 | 1182.02 | 1.5089 | 1937.6 | 753.5
303.15 K | 0.055 | 1178.99 | 1.5078 | 1923.4 | 501.5
308.15 K | 0.077 | 1176.07 | 1.5064 | 1910.1 | 342.7
313.15 K | 0.104 | 1173.14 | 1.5052 | 1897.2 | 238.3
318.15 K | 0.138 | 1170.19 | 1.5039 | 1884.6 | 171.8
323.15 K | 0.181 | 1167.23 | 1.5027 | 1872.3 | 126.7
328.15 K | 0.231 | 1164.25 | 1.5014 | 1860 | 95.4
333.15 K | 0.283 | 1161.27 | 1.5002 | 1847.9 | 73
338.15 K | 0.34 | 1158.29 | 1.4989 | 1835.8 | 58.2
343.15 K | 0.413 | 1155.33 | 1.4977 | 1824.2 | 46.3
